US6458585B1, “Cytokine-free culture of dendritic cells” (Nexell Therapeutics Inc., priority 1996, dated 2002)

Key:
Format in all cases: cell-based, human
Bulk PBMNC = assay: Morphologically identified dendritic cells in bulk PBMNC cultures with non-cytokine additives
Procedure: (§1) Cytofunnels were attached to microscope slides. 50,000 to 100,000 cells were removed from each culture and resuspended in approximately 100 to 200 ul of PBS-CMF. Slides were placed in the Cytospin® centrifuge and spun at 100 rpm for 4 min. Cytofunnels were removed from the slides and the slides were air dried for 1 minute. Ten drops of Wright-Geimsa stain were placed onto each slide and allowed to fix for 1 to 2 minutes. Ten drops of water were added to each slide and allowed to sit for 2 to 4 minutes. The slides were rinsed and air dried.
(§2) Reading of Cytospin Slides: Slides were read under phase contrast microscopy, 40× and 60× oil magnification. One hundred cells were identified and characterized morphologically as either dendritic cells or non-dendritic cells (lymphocytes and monocyte, or CD34+-derived cells in those cases). Digital images were taken using a color monitor and color video printer.
Culture of Bulk PBMNC: PBMNC cells were cultured in X-VIVO 15™ supplemented with 2 mM L- glutamine. Cultures were initiated at 5×^05 cells/ml in PL2417 gas-permeable containers (20 ml). GM-CSF and IL-4 were added to the cultures at final concentrations of 50 ng/ml and 1000 U/ml or non-cytokine additives such as Vitamin D3 at 2.5 uM, Vitamin E at 0.1%, Linoleic Acid at 5 ug/ml, or Ca++ Ionophore at 10 mM. Addition and subtraction of cells, media, and growth factors to and from PL2417 gas-permeable containers was accomplished by spiking a Sampling Site Coupler into the sample port of the container followed by use of syringes and needles. Cells were cultured in a 5% CO2, ambient O2, 37° C. humidified incubator for 7 days.
(§3) Cytospin slide preparation, Wright-Geimsa and immunohistochemical staining of the cultured cells were conducted as described in Example 1 and 2 above. Mixed lymphocyte reactions (MLR's) were setup using T cells (responders) and dendritic cell enriched cultures (stimulators) from bulk PBMNC cultures, as described above in Example 1.

adherent PBMNC [1] = assay: DC morphology (Wright-Geimsa) of plastic adherent cells cultured with non-cytokine additives
Procedure: as §1, §2
(§4) Enrichment and Culture of Adherent Cells Using Polystyrene Tissue Culture Plates: PBMNC were resuspended in culture media (X-VIVO 15™+10% autologous serum) at 2×10^6 cells/ml. Cells were placed into 48 well polystyrene tissue culture plates […] and incubated for 2 hours in a 5% CO2, ambient O2, 37° C. humidified incubator. Non-adherent cells were removed from the plates then wells were rinsed with X-VIVO 15™ containing no serum. Cells remaining in the wells were adherent cells. These cells were cultured by adding 2 ml of X-VIVO 15™ to each well plus GM-CSF and IL-4 at final concentrations of 50 ng/ml and 1000 U/ml or the following: cAMP at 0.5 mM, dibutyryl cAMP at 0.1 mM, NaF at 0.25 mM, theophylline at 0.5 mM, PGE at 0.1 mM, Vitamin D3 at 2.5 uM, Vitamin E at 0.1%, Retinoic Acid at 10^−6 M, PMA at 1 pM, Linoleic Acid at 5 ug/ml, or Ca^++ Ionophore at 10 mM. Furthermore, cells were also cultured with the above non-cytokine additives plus GM-CSF at 50 ng/ml. Cells were cultured in a 5% CO2, ambient O2, 37° C. humidified incubator for 7 days.
as §3
(§5) Results: In the set of experiments using plastic adherent cells grown in polystyrene tissue culture plates, a Day 0 analysis of the cells was not performed. However, these cultures were analyzed for the presence of DC on days 4 and 7. Analysis perfomed were cell counts, viability via propidium iodide, morphology under Wright-Geimsa staining, and immunohistochemical staining using an anti-S100 antibody.

adherent PBMNC [2] = assay: Cell counts and viability of plastic adherent cells cultured with non-cytokine additives in polystyrene plates; set-up: % VIABLE: concentration or dose not given beside the values; details: for % VIABLE: propidium iodide
Procedure: Viability Determination: Prior to acquisition, 5 ul propidium iodide (PI) was added to each tube for use as a viability check. The cells were vortexed and acquired within 10 min of PI addition.
as §4, §5

**Q.** Which “% DC” value (Bulk PBMNC; Day 7) does the source give for `CCCCC/C=C\C/C=C\CCCCCCCC(=O)O` [Linoleic Acid] here?
**A.** 5.00%

**Q.** What about the “TOTAL # OF DC” value (Bulk PBMNC; Day 7, projected in culture) of the same molecule?
**A.** 4.63E+05

**Q.** What about the “fold fewer DC (average total number projected in culture) than GM-CSF/IL-4 cultures” value (Bulk PBMNC; day 7) of the same molecule?
**A.** approximately 4 fold

**Q.** And the “% DC” value (adherent PBMNC [1]; Day 4, with GM-CSF present)?
**A.** 8.00%

**Q.** What about the “% DC” value (adherent PBMNC [1]; Day 4, without GM-CSF) of the same molecule?
**A.** 3.00%

**Q.** What about the “% DC” value (adherent PBMNC [1]; Day 7, with GM-CSF present) of the same molecule?
**A.** 9.00%

**Q.** What about the “% DC” value (adherent PBMNC [1]; Day 7, without GM-CSF) of the same molecule?
**A.** 6.00%

**Q.** What about the “morphologically identified DC” value (adherent PBMNC [1]; day 7, without GM-CSF added to additives) of the same molecule?
**A.** next highest percentages

**Q.** And the “TOTAL CELLS” value (adherent PBMNC [2]; Day 4, with GM-CSF present)?
**A.** 1.41E + 05

**Q.** And the “% VIABLE” value (adherent PBMNC [2]; Day 4, with GM-CSF present)?
**A.** 96.07%

**Q.** What about the “TOTAL CELLS” value (adherent PBMNC [2]; Day 4, without GM-CSF) of the same molecule?
**A.** 1.99E + 05

**Q.** What about the “% VIABLE” value (adherent PBMNC [2]; Day 4, without GM-CSF) of the same molecule?
**A.** 78.84%

**Q.** What about the “TOTAL CELLS” value (adherent PBMNC [2]; Day 7, with GM-CSF present) of the same molecule?
**A.** 7.85E + 05

**Q.** And the “% VIABLE” value (adherent PBMNC [2]; Day 7, with GM-CSF present)?
**A.** 82.63%

**Q.** And the “TOTAL CELLS” value (adherent PBMNC [2]; Day 7, without GM-CSF)?
**A.** 1.19E + 05

**Q.** What about the “% VIABLE” value (adherent PBMNC [2]; Day 7, without GM-CSF) of the same molecule?
**A.** 82.69%
